Assay results as given in US20170204038A1, “3-(4-ISOBUTYL-2-METHYLPHENYL) PROPANAL AS PERFUME INGREDIENT” (Givaudan, S.A., priority 2013, published 2017).

How the values were obtained:
[1] = Odour Value (ratio of vapour pressure to detection threshold concentration)
Source text: The compound of formula (I) is a particularly impactful perfume ingredient. The impact that a perfume ingredient exerts is related to its Odour Value. Odour Value is the ratio of vapour pressure to detection threshold concentration.

[2] = test system: rat hepatocytes; test: In vitro metabolism study in rat hepatocytes in suspension (GC-MS / LC-MS); conditions: for Residual test compound: male, Sprague-Dawley, rat, 4 h, 100 μM
Protocol: In order to study in vitro metabolism in rat hepatocytes Lilial™ and the compound of the present invention are incubated in presence of rat hepatocytes in suspension. Decrease of Lilial™ and the compound of the present invention, and formation of the corresponding benzoic acid derivative may be analysed by GC-MS.
Cryopreserved hepatocytes from male rats (Sprague Dawley; Lifetechnologies) were defrozen, washed in Cyropreserved Hepatocytes Recovery Medium (CHRM; Lifetechnologies) and suspended in Williams E Medium (WEM; Lifetechnologies). Lilial™, or the compound of formula (I) (final concentration: 100 μM) were added to the cells (1×10^6 viable cells/ml) and suspensions were incubated up to 4 hours at 37° C. on a shaker in duplicate. Metabolism of testosterone was monitored as positive control. Decrease of the test compounds and formation of the corresponding benzoic acid derivative was determined by GC-MS analysis of methyl-esters formed after derivatisation with trimethylsilyl-diazomethane (Sigma-Aldrich) in methanol. The test compounds react with diazomethane yielding a methyl-ketone which was used for the quantification of Lilial™ and the compound of formula (I). Metabolism was stopped with ice cold 1 M HCl, samples were extracted with tert-butyl methyl ether (MTBE) and analysed by GC-MS. Incubations containing testosterone as control were also stopped with ice cold 1 M HCl, centrifuged to separate the cells, filtrated and the decrease of testosterone analysed by LC-MS. To quantify decrease of the test substances and formation of benzoic acid metabolites, calibration curves of reference materials (Lilial™ and the compound of formula (I), tert-butyl benzoic acid (Fluka) was prepared in hepatocyte incubation medium and analysed like the hepatocyte samples.

[3] = test system: male rats; conditions: rat, in vivo; cited from earlier work
[4] = test system: primates; conditions: cited from earlier work
[5] = test system: guinea-pigs; conditions: cited from earlier work
[6] = test system: mice; conditions: cited from earlier work
[7] = test system: dogs; conditions: dog, in vivo; cited from earlier work
[8] = test system: fatty acid synthesis; conditions: in vitro; cited from earlier work
[9] = test system: male rats; conditions: cited from earlier work
[10] = test system: glucose synthesis; conditions: in vitro; cited from earlier work

## Cc1cc(CC(C)C)ccc1CCC=O [Compound of formula (I), 3-(4-isobutyl-2-methylphenyl)propanal]
[1]
  Odour Value: 559,071
[2]
  Residual test compound: 0 µM

## CC(C=O)Cc1ccc(C(C)C)cc1 (centres unmarked) [Cyclamen aldehyde, 3-p-cumenyl-2-methylpropionaldehyde]
[1]
  Odour Value: 21,986

## CC(C=O)Cc1ccc(C(C)(C)C)cc1 (centres unmarked) [Lilial™, 3-(4-tert-butylphenyl)-2-methylpropanal]
[3]
  toxic effects on the reproductive organs: toxic effects
[4]
  effects in studies with primates: No effects
[1]
  Odour Value: 32,978
[5]
  effects in studies with guinea-pigs: No effects
[2]
  Residual test compound: 0 µM
[6]
  effects in studies with mice: No effects
[7]
  toxic effects on the reproductive organs: toxic effects

## CC(C)(C)c1ccc(C(=O)O)cc1 [tert-butyl benzoic acid]
[8]
  inhibition of fatty acid synthesis: inhibit
[9]
  testicular effects: cause testicular effects
[10]
  inhibition of glucose synthesis: inhibit

## C[C@]12CC[C@H]3[C@@H](CCC4=CC(=O)CC[C@@]43C)[C@@H]1CC[C@@H]2O [testosterone]
[2]; rat hepatocytes, LC-MS
  Decrease of testosterone (positive control): rapid decrease
